pIC50, pKd, pKi: −log10 of the molar value. Where “and” joins values, the source holds several entries; their conditions need not be identical. Identical values can stand only once. Like-named read-outs stand apart in the source and are kept apart here.
Molecular target: BodoOBP8 (Bradysia odoriphaga, UniProt A0A2S0X9G3)
Experiment: Fluorescence competitive binding assay (1-NPN probe) with recombinant BodoOBP8
Protocol: For the binding assays, all test ligands (Table S1) were dissolved in methanol, and N-phenyl-1-naphthylamine (1-NPN) was used as a fluorescent probe.

[1] = recombinant BodoOBP8, calculated from IC50 of 1-NPN displacement, read-out: Ki
[2] = recombinant BodoOBP8, displacement of 1-NPN, read-out: IC50
[3] = Ki, recombinant BodoOBP8, calculated from IC50 of 1-NPN displacement
[4] = pH 7.4, Figure 3B, read-out: Ki

Sequence of BodoOBP8 (A0A2S0X9G3 entry or part of it): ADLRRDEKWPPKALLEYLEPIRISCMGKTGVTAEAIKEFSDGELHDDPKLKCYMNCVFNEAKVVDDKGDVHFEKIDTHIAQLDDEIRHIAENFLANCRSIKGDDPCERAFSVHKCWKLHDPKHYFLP

Compound | pKi [1] | pIC50 [2] | further results
CCCCOC(=O)CCC(C)=O [Butyl levulinate] | < 4.30 | < 4.30 | 
CCCCCCCCCC=O [Decanal] | < 4.30 | < 4.30 | 
COC(=O)Cc1ccccc1 [Methyl phenylacetate] |  |  | pIC50: < 4.30; pKi [3]: < 4.30
C=C(C)[C@H]1CC=C(C)CC1 [(R)-(+)-Limonene] | < 4.30 | < 4.30 | 
Cc1ccc(C(C)C)cc1O [Carvacrol] |  |  | pIC50: < 4.30; pKi [3]: < 4.30
C=CC(C)(O)CCC=C(C)C (stereo not drawn) [Linalool] |  |  | pIC50: < 4.30; pKi [3]: < 4.30
CCCCCCCCCCCC [Dodecane] | < 4.30 | < 4.30 | 
C=CCSSC [Methyl allyl disulfide] |  | 5.10 | pKi [4]: 5.17
CCCCCCCCCCCCCCCC [Hexadecane] | < 4.30 | < 4.30 | 
C=C1CC/C=C(/C)CC[C@@H]2[C@@H]1CC2(C)C [ß-caryophyllene] | < 4.30 | < 4.30 | 
CCCCCCCC=O [Octanal] | < 4.30 | < 4.30 | 
CCCCCCCCCCCCCC [Tetradecane] | < 4.30 | < 4.30 | 
CC(=O)c1ccccc1 [Acetophenone] | < 4.30 | < 4.30 | 
CCCCCCCCCCCCCCCCC [n-Heptadecane] | 5.39 and > 5.00 | 5.22 | pKi [4]: 5.39
CCCCCCCCCCCC=O [Dodecyl aldehyde] | < 4.30 | < 4.30 | 
CCCCCCCCC=O [Nonanal] | < 4.30 | < 4.30 | 

Compound | pKi [1] | pIC50 [2] | further results
CC12CCC(CC1)C(C)(C)O2 [1,8-Cineole] | < 4.30 | < 4.30 | 
CC/C=C\CCO [cis-3-Hexen-1-ol] |  |  | pIC50: < 4.30; pKi [3]: < 4.30
CCCCC(C)=O [2-Hexanone] |  |  | pIC50: < 4.30; pKi [3]: < 4.30
c1ccc2[nH]ccc2c1 [(H-11)Indole, Indole] |  |  | pIC50: < 4.30; pKi [3]: < 4.30
COC(=O)c1ccccc1O [Methyl salicylate] |  |  | pIC50: < 4.30; pKi [3]: < 4.30
O=Cc1ccccc1 [Benzaldehyde] |  |  | pIC50: < 4.30; pKi [3]: < 4.30
CC(=O)/C=C/C1=C(C)CCCC1(C)C [ß-Ionone] | < 4.30 | < 4.30 | 
CCCCC=O [Valeric aldehyde] | < 4.30 | < 4.30 | 
CCCCCCC=O [Heptanal] | < 4.30 | < 4.30 | 
CC(C)=CCCC(C)CCO (stereo not drawn) [Citronellol] | < 4.30 | < 4.30 | 
C/C1=C\CC/C(C)=C/CC(C)(C)/C=C/C1 [α-Humulene] | < 4.30 | < 4.30 | 
C=CC(C)=CCC=C(C)C [Ocimene] | < 4.30 | < 4.30 | 
C=CCSSCC=C [Diallyl disulfide] |  |  | pIC50: 5.00; pKi (Ki, pH 7.4, Figure 3B): 5.39; pKi [3]: 5.17; pKi (recombinant BodoOBP8, calculated from IC50 of 1-NPN displacement): > 5.00
c1ccc(Nc2cccc3ccccc23)cc1 [1-NPN, N-phenyl-1-naphthylamine, reference compound] |  |  | pKd: 5.66
C=C1CCC2CC1C2(C)C (stereo not drawn) [ß-pinene] | < 4.30 | < 4.30 | 
CCCCCCCCC [Nonane] | < 4.30 | < 4.30 | 

Source: PMC8539145, “Function and Characterization Analysis of BodoOBP8 from Bradysia odoriphaga (Diptera: Sciaridae) in the Recognition of Plant Volatiles and Sex Pheromones” (Insects, 2021)
